This is an account of results in ChEMBL document CHEMBL1128007, “Synthesis of a galactose-fucose disaccharide mimic of sialyl Lewis X” (Bioorg Med Chem Lett, 1994).

Structures are written as SMILES. Calls of active or inactive are those of the source. The rule behind the calls is not given here.

The target in the test is T1, E-selectin (Homo sapiens) (UniProt P16581).
T1 sequence (whole entry): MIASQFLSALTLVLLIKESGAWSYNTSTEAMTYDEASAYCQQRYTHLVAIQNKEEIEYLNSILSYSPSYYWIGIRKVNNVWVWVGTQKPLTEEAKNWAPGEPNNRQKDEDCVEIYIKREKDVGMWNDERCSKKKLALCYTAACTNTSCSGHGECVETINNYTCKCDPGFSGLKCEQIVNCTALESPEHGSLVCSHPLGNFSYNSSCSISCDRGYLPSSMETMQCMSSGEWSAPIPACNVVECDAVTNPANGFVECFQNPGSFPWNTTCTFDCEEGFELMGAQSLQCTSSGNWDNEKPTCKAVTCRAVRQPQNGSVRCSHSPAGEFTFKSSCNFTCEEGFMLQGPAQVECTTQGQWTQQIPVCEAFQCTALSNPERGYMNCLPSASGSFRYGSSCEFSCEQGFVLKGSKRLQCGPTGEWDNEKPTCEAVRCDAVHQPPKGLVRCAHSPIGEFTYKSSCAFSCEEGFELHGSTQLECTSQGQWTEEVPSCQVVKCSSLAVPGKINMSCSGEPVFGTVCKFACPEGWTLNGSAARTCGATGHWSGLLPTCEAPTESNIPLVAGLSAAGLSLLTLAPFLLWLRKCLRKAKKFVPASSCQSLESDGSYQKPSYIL
The experiment in a line: Compound was tested at 0.05-100 mM concentration to inhibit ca++ mediated binding of HL-60 cells to Selectin E adsorbed onto a multi-well plate; Active. It counts as cell-based.

Turning to `COC1OC(C)C(O)(CC(=O)CCCOC2(C(=O)O)CC(O)C(NC(C)=O)C([C@@H](O)[C@H](O)CO)O2)C(O)C1O` (stereo partly drawn), the outcome was Active.
Take `CC(=O)N[C@H]1[C@H]([C@H](O)[C@H](O)CO)O[C@@](O[C@H]2[C@@H](O)[C@@H](CO)O[C@@H](O[C@@H]([C@H](O[C@@H]3O[C@@H](C)[C@@H](O)[C@@H](O)[C@@H]3O)[C@H](C=O)NC(C)=O)[C@H](O)CO)[C@@H]2O)(C(=O)O)C[C@@H]1O`: the outcome was Active.
Then `CC1OC(OCCOC2CC(CO)C(O)C(OCC(=O)O)C2O)C(O)C(O)C1O` (stereo not drawn), with “Active”.
